Laboratory results: US10285989B2, “Pyrimidinone amide compounds as PDE2 inhibitors” (Merck Sharp & Dohme Corp., priority 2015, dated 2019)
Where two headings read alike, the source gives them in different places.

How the values were obtained:
Rhesus PDE2A3 = Rhesus PDE2A3 (Macaca mulatta, UniProt B3VTJ2); assay: PDE2 fluorescence polarization (IMAP FP) inhibition assay, rhesus PDE2A3; type: biochemical, rhesus macaque
Protocol: A Labcyte Echo 555 (Labcyte, Sunnyvale, Calif.) is used to dispense 200 nL from each well of the titration plate to the 384 well assay plate. Ten microliters of a solution of enzyme (1/2000 final dilution from aliquots; sufficient to produce 20% substrate conversion) was added to the assay plate. Next 10 uL of a separate solution of the substrate FAM-labeled cAMP (50 nM final concentration product # R^7506 from Molecular Devices) and the activator cGMP (1 uM final concentration), prepared in the assay buffer (10 mM Tris HCl, pH 7.2, 10 mM MgCl2, 0.05% NaN3 0.01% Tween-20, and 1 mM DTT) was added to the assay plate and shaken to mix. The reaction is allowed to proceed at room temperature for 60 minutes. A binding solution is then made from the kit components, comprised of 80% Solution A, 20% Solution B and binding reagent at a volume of 1/600 the total binding solution. The enzymatic reaction is stopped by addition of 60 μL of the binding solution to each well of the assay plates and the plates are sealed and shaken for 30 seconds. The plate was incubated at room temperature for at least one hour prior to determining the fluorescence polarization (FP). The parallel and perpendicular fluorescence of each well of the plate was measured using a Tecan Genios Pro plate reader (Tecan, Switzerland) or Perkin Elmer EnVision™ plate reader (Waltham, Mass.). Fluorescence polarization (mP) was calculated from the parallel (S) and perpendicular (P) fluorescence of each sample well and the analogous values for the median control well, containing only substrate (So and Po), using the following equation: Polarization (mP)=1000*(S/So−P/Po)/(S/So+P/Po).
Dose-inhibition profiles for each compound were characterized by fitting the mP data to a four-parameter equation given below.
An apparent (KM) for FAM-labeled cAMP of ˜10 uM was used.

human PDE2A1 = human PDE2A1 (Homo sapiens (Human), UniProt O00408); assay: PDE2 IMAP FP inhibition assay, human PDE2A1 (selectivity panel format); type: biochemical
Chain of human PDE2A1 (O00408 other isoform, or with tags, fused parts or gaps): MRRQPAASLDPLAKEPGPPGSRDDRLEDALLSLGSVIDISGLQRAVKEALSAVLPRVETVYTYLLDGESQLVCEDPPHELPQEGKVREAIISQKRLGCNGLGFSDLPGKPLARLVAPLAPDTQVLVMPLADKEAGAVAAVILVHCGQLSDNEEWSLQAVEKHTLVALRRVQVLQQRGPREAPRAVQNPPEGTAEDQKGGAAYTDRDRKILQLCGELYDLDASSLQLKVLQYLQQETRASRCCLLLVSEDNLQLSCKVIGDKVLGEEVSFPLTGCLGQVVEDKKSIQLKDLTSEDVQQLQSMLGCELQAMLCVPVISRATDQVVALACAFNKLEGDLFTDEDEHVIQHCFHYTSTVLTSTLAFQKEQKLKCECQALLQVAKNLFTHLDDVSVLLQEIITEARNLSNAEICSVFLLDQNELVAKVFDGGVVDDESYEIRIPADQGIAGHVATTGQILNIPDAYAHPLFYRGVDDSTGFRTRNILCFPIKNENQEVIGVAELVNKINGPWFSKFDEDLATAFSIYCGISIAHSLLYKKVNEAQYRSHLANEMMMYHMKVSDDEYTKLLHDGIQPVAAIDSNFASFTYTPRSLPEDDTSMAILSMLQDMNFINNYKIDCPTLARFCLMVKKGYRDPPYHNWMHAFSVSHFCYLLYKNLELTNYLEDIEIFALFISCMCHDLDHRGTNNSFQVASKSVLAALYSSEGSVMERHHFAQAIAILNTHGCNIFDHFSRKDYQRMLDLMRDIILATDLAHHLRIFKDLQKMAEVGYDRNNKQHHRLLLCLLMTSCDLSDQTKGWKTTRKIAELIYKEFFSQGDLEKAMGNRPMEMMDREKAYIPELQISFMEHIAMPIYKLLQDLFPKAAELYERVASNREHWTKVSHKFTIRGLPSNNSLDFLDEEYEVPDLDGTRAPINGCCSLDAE
Procedure, shortened: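 IMAP fluorescence polarization assay; substrate 50 nM FAM-cAMP with 1000 nM cGMP, enzyme at ~20% conversion, in 10 mM Tris pH 7.2, 10 mM MgCl2, 1 mM DTT, 0.01% Tween-20. 60 min room temperature, stopped with IMAP binding reagent, 1 h, then parallel/perpendicular fluorescence read.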

[1] = Lab A, read-out: Rhesus PDE2 Ki (nM) - Lab A
[2] = Lab A, read-out: Human PDE2 Ki (nM) - Lab A
[3] = Lab B, read-out: Rhesus PDE2 Ki (nM) - Lab B
[4] = Lab B, read-out: Human PDE2 Ki (nM) - Lab B

Chain of Rhesus PDE2A3 (B3VTJ2 1-941): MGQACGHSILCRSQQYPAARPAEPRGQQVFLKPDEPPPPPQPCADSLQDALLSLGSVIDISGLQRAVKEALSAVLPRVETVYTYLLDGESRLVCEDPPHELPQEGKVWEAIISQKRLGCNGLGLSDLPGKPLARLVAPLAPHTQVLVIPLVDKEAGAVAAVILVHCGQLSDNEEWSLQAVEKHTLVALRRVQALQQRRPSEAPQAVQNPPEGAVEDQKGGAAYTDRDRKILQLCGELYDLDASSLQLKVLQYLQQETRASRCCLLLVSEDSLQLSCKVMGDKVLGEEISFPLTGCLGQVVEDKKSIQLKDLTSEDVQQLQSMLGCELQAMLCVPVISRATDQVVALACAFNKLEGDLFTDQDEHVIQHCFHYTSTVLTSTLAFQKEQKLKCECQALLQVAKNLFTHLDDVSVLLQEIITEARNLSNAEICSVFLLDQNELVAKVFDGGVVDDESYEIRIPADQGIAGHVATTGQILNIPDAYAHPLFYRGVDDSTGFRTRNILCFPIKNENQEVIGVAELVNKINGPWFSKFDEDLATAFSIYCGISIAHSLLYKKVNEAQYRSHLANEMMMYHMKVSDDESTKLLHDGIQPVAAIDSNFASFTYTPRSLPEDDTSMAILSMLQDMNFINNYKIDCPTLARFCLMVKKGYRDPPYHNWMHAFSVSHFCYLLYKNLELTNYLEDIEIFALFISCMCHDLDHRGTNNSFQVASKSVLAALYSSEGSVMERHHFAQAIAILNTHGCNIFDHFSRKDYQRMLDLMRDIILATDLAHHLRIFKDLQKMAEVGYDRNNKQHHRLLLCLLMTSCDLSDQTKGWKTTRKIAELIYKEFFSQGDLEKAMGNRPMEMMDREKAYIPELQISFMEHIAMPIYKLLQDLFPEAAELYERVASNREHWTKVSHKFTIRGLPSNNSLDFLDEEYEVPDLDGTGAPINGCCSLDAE

Structure (SMILES) | Ki (Rhesus PDE2A3; [1]) | Ki (human PDE2A1; [2]) | Ki (Rhesus PDE2A3; [3]) | Ki (human PDE2A1; [4])
O=C(N[C@@H](c1ccc(OC(F)(F)F)c(F)c1)C1CC1)c1cc(=O)[nH]c(N2CCCC2)n1 [Example 25, N-{(R)-cyclopropyl[3-fluoro-4-(trifluoromethoxy)phenyl]methyl}-6-oxo-2-pyrrolidin-1-yl-1,6-dihydropyrimidine-4-carboxamide] | 0.85 nM | 0.37 nM |  | 
C[C@@H](NC(=O)c1cc(=O)[nH]c(N2CCCC2)n1)c1ccc(OC(F)(F)F)cc1 [Example 28, 6-oxo-2-pyrrolidin-1-yl-N-{(1R)-1-[4-(trifluoromethoxy)phenyl]ethyl}-1,6-dihydropyrimidine-4-carboxamide] | 1.3 nM | 0.45 nM |  | 
CC[C@@H](NC(=O)c1cc(=O)[nH]c(N2CCCC2)n1)c1ccc(SC(F)(F)F)c(F)c1 [Example 29, N-[(1R)-1-{3-fluoro-4-[(trifluoromethyl)sulfanyl]phenyl}propyl]-6-oxo-2-pyrrolidin-1-yl-1,6-dihydropyrimidine-4-carboxamide] | 0.56 nM | 0.22 nM |  | 
C[C@@H](NC(=O)c1cc(=O)[nH]c(N(C)C)n1)c1cc(F)c(C(F)(F)F)cc1F [Example 36, N-{(1R)-1-[2,5-difluoro-4-(trifluoromethyl)phenyl]ethyl}-2-(dimethylamino)-6-oxo-1,6-dihydropyrimidine-4-carboxamide] |  |  | 4.9 nM | 7.7 nM
CC(C)C(C)(NC(=O)c1cc(=O)[nH]c(N(C)C)n1)c1ccc(S(F)(F)(F)(F)F)cc1 (stereo not drawn) [Example 39, 2-(dimethylamino)-N-{1,2-dimethyl-1-[4-(pentafluoro-λ^6-sulfanyl)phenyl]propyl}-6-oxo-1,6-dihydropyrimidine-4-carboxamide] |  |  | 8.7 nM | 12 nM
CN(C)c1nc(C(=O)NC2(c3ccc(C(C)(C)C)cc3)CC2)cc(=O)[nH]1 [Example 46, N-[1-(4-tert-butylphenyl)cyclopropyl]-2-(dimethylamino)-6-oxo-1,6-dihydropyrimidine-4-carboxamide] |  |  | 3.4 nM | 3.6 nM
Cc1cc(C(F)(F)F)ccc1C(C)(C)NC(=O)c1cc(=O)[nH]c(N(C)C)n1 [Example 78, 2-(dimethylamino)-N-{1-methyl-1-[2-methyl-4-(trifluoromethyl)phenyl]ethyl}-6-oxo-1,6-dihydropyrimidine-4-carboxamide] |  |  | 2.3 nM | 2.2 nM
CN(C)c1nc(C(=O)NC(C)(C)c2ccc(C(F)(F)F)cc2F)cc(=O)[nH]1 [Example 82, 2-(dimethylamino)-N-{1-[2-fluoro-4-(trifluoromethyl)phenyl]-1-methylethyl}-6-oxo-1,6-dihydropyrimidine-4-carboxamide] |  |  | 2 nM | 2.5 nM
C[C@@H](NC(=O)c1cc(=O)[nH]c(N(C)C)n1)c1ccc(C(F)(F)F)c(F)c1F [Example 84, N-{(1R)-1-[2,3-difluoro-4-(trifluoromethyl)phenyl]ethyl}-2-(dimethylamino)-6-oxo-1,6-dihydropyrimidine-4-carboxamide] |  |  | 3.5 nM | 2.5 nM
CN(C)c1nc(C(=O)N[C@@H](c2ccc(OC(F)(F)F)c(Cl)c2)C2CC2)cc(=O)[nH]1 [Example 85, N-[(R)-[3-chloro-4-(trifluoromethoxy)phenyl](cyclopropyl)methyl]-2-(dimethylamino)-6-oxo-1,6-dihydropyrimidine-4-carboxamide] | 2 nM |  | 4.9 nM | 3.6 nM
CC(C)[C@@H](NC(=O)c1cc(=O)[nH]c(N(C)C)n1)c1ccc(OC(F)(F)F)c(Cl)c1 [Example 86, N-{(1R)-1-[3-chloro-4-(trifluoromethoxy)phenyl]-2-methylpropyl}-2-(dimethylamino)-6-oxo-1,6-dihydropyrimidine-4-carboxamide] | 0.54 nM |  | 2.1 nM | 1.7 nM
CN(C)c1nc(C(=O)NC(C)(C)c2ccc(S(F)(F)(F)(F)F)cc2)cc(=O)[nH]1 [Example 118, 2-(Dimethylamino)-N-{1-methyl-1-[4-(pentafluoro-λ^6-sulfanyl)phenyl]ethyl}-6-oxo-1,6-dihydropyrimidine-4-carboxamide] |  |  | 224 nM | 140 nM
C[C@@H](NC(=O)c1cc(=O)[nH]c(NC2CC2)n1)c1ccc(C(F)(F)F)cc1 [Example 140, 2-(cyclopropylamino)-6-oxo-N-{(1R)-1-[4-(trifluoromethyl)phenyl]ethyl}-1,6-dihydropyrimidine-4-carboxamide] | 54 nM | 51 nM |  | 
CCN(CC)c1nc(C(=O)N[C@H](C)c2ccc(C(F)(F)F)cc2)cc(=O)[nH]1 [Example 142, 2-(diethylamino)-6-oxo-N-{(1R)-1-[4-(trifluoromethyl)phenyl]ethyl}-1,6-dihydropyrimidine-4-carboxamide] | 23 nM | 16 nM |  | 
Cc1ncc2c(n1)CN(c1nc(C(=O)N[C@H](C)c3ccc(C(F)(F)F)cc3)cc(=O)[nH]1)C2 [Example 159, 2-(2-methyl-5,7-dihydro-6H-pyrrolo[3,4-d]pyrimidin-6-yl)-6-oxo-N-{(1R)-1-[4-(trifluoromethyl)phenyl]ethyl}-1,6-dihydropyrimidine-4-carboxamide] | 18 nM | 11 nM |  | 
COCCCOc1nc(C(=O)NC(C)c2ccc(C(F)(F)F)cc2)cc(=O)[nH]1 (stereo not drawn) [Example 179, 2-(3-methoxypropoxy)-6-oxo-N-{1-[4-(trifluoromethyl)phenyl]ethyl}-1,6-dihydropyrimidine-4-carboxamide] | 108 nM | 75 nM |  | 

Results, then the compound that gave them:

Ki (Rhesus PDE2A3; [1]) | Ki (human PDE2A1; [2]) | Ki (Rhesus PDE2A3; [3]) | Ki (human PDE2A1; [4]) | Structure (SMILES)
 |  | 2.3 nM | 2.4 nM | C[C@@H](NC(=O)c1cc(=O)[nH]c(N(C)C)n1)c1ccc(OC(F)(F)F)cc1F [Example 83, 2-(dimethylamino)-N-{(1R)-1-[2-fluoro-4-(trifluoromethoxy)phenyl]ethyl}-6-oxo-1,6-dihydropyrimidine-4-carboxamide]
 |  | 2.5 nM | 2.1 nM | C[C@H](NC(=O)c1cc(=O)[nH]c(N(C)C)n1)c1ccc(S(F)(F)(F)(F)F)cc1F [Example 117, (S)-2-(dimethylamino)-N-(1-(4-(pentafluorothio)-2-fluorophenyl)ethyl)-6-oxo-1,6-dihydropy-rimidine-4-carboxamide]
60 nM | 30 nM |  |  | C[C@@H](NC(=O)c1cc(=O)[nH]c(N2CCOCC2)n1)c1ccc(C(F)(F)F)cc1 [Example 132, 2-morpholin-4-yl-6-oxo-N-{(1R)-1-[4-(trifluoromethyl)phenyl]ethyl}-1,6-dihydropyrimidine-4-carboxamide]
272 nM | 144 nM |  |  | C[C@@H](NC(=O)c1cc(=O)[nH]c(N)n1)c1ccc(C(F)(F)F)cc1 [Example 134, 2-amino-6-oxo-N-{(1R)-1-[4-(trifluoromethyl)phenyl]ethyl}-1,6-dihydropyrimidine-4-carboxamide]
610 nM | 491 nM |  |  | C[C@@H](NC(=O)c1cc(=O)[nH]c(Nc2ccccn2)n1)c1ccc(C(F)(F)F)cc1 [Example 136, 6-oxo-2-(pyridin-2-ylamino)-N-{(1R)-1-[4-(trifluoromethyl)phenyl]ethyl}-1,6-dihydropyrimidine-4-carboxamide]
109 nM | 56 nM |  |  | C[C@@H](NC(=O)c1cc(=O)[nH]c(NC2CCCC2)n1)c1ccc(C(F)(F)F)cc1 [Example 139, 2-(cyclopentylamino)-6-oxo-N-{(1R)-1-[4-(trifluoromethyl)phenyl]ethyl}-1,6-dihydropyrimidine-4-carboxamide]
10.3 nM | 6 nM |  |  | CCN(C)c1nc(C(=O)N[C@H](C)c2ccc(C(F)(F)F)cc2)cc(=O)[nH]1 [Example 141, 2-[ethyl(methyl)amino]-6-oxo-N-{(1R)-1-[4-(trifluoromethyl)phenyl]ethyl}-1,6-dihydropyrimidine-4-carboxamide]
0.48 nM |  | 0.51 nM | 0.42 nM | CC(C)[C@@H](NC(=O)c1cc(=O)[nH]c(N(C)C)n1)c1ccc(OC(F)(F)F)c(F)c1 [Example 149, 2-(dimethylamino)-N-{(1R)-1-[3-fluoro-4-(trifluoro-methoxy)phenyl]-2-methylpropyl}-6-oxo-1,6-dihydropyrimidine-4-carboxamide]
